# Measurements published in patent US10294202B2, “Pyrrolidinones as herbicides” (FMC Corporation, priority 2013, dated 2019).
# Like-named read-outs stand apart in the source and are kept apart here.
# Assays:
# rice = assay: Test C flooded paddy test; assay type: in vivo, Oryza sativa; conditions: Flood
# Method in brief: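 2-leaf stage; flood 3 cm over soil; compound into paddy water; depth held; greenhouse 13–15 d; visual % control vs untreated (0 = none, 100 = complete); "-" = not tested.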
# blackgrass = assay: Test A postemergence herbicide test; assay type: in vivo, Alopecurus myosuroides
# Method in brief: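 Ratings compare treated with untreated plants roughly 10 days after a postemergence application made at the one- to two-leaf stage. Scoring uses 0–100, where 0 means no effect and 100 complete control.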
# ragweed = assay: Test A pre-/postemergence herbicide test; assay type: in vivo, Ambrosia elatior
# Method in brief: (§1)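 Seeds in loam–sand blend received preemergence directed soil spray; separately, plants 2–10 cm at one- to two-leaf stage received postemergence spray, both with test chemicals in non-phytotoxic solvent with surfactant. After ~10 days in greenhouse, injury rated visually against untreated controls, 0 (no effect) to 100 (complete control).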
# crabgrass, large = assay: Test A pre-/postemergence herbicide test; assay type: in vivo, Digitaria sanguinalis; conditions: for pest or weed control at 125 g/ha / pest or weed control at 500 g/ha: Digitaria sanguinalis, 240 h, read-out: Plant response rating, Crabgrass, Large; for pest or weed control at 125 g/ha / Crabgrass, Large plant response rating: 125 g ai/ha; for pest or weed control at 125 g/ha: 0 no effect, 100 complete control; for pest or weed control at 500 g/ha: 500 g ai/ha; for Crabgrass, Large plant response rating: Preemergence, visual rating on 0 to 100 scale (0 no effect, 100 complete control)
# Method in brief: as §1
# morningglory = assay: Test A pre-/postemergence herbicide test; assay type: in vivo, Ipomoea spp.; conditions: for pest or weed control at 500 g/ha / pest or weed control at 125 g/ha: Ipomoea, 240 h, read-out: Plant response rating, Morningglory; for pest or weed control at 500 g/ha: 500 g ai/ha; for Morningglory plant response rating: Preemergence, visual rating on 0 to 100 scale (0 no effect, 100 complete control); for Morningglory plant response rating / pest or weed control at 125 g/ha: 125 g ai/ha; for pest or weed control at 125 g/ha: 0 no effect, 100 complete control
# Method in brief: as §1
# velvetleaf = assay: Test A pre-/postemergence herbicide test; assay type: in vivo, Abutilon theophrasti; conditions: for pest or weed control at 500 g/ha / pest or weed control at 125 g/ha: Abutilon theophrasti, 240 h, read-out: Plant response rating, Velvetleaf; for pest or weed control at 500 g/ha: 500 g ai/ha; for Velvetleaf plant response rating: Preemergence, visual rating on 0 to 100 scale (0 no effect, 100 complete control); for Velvetleaf plant response rating / pest or weed control at 125 g/ha: 125 g ai/ha; for pest or weed control at 125 g/ha: 0 no effect, 100 complete control
# Method in brief: as §1
# [1] = 62 g ai/ha, scale of 0 to 100 where 0 is no effect and 100 is complete control, 13 to 15 days
# [2] = 125 g ai/ha, scale of 0 to 100 where 0 is no effect and 100 is complete control, 13 to 15 days
# [3] = 500 g ai/ha, 0 to 100 scale (0 no effect, 100 complete control)
# [4] = 125 g ai/ha, visual rating, 0 to 100 scale, 0 no effect, 100 complete control, approximately 10 days, preemergence
# [5] = 250 g ai/ha, scale of 0 to 100 where 0 is no effect and 100 is complete control, 13 to 15 days
# [6] = 125 g ai/ha, 0 to 100 scale, 0 is no effect, 100 is complete control
# [7] = Postemergence, 125 g ai/ha, 0 to 100 scale, 0 is no effect, 100 is complete control
# [8] = preemergence, 500 g ai/ha, 0 to 100 scale, 0 is no effect and 100 is complete control
# [9] = post-emergence, Postemergence, 0 to 100 scale
# [10] = post-emergence, Postemergence, 0 to 100 scale (0 no effect, 100 complete control)
# [11] = pre-emergence, preemergence, 0 to 100 scale
# [12] = 31 g ai/ha, scale of 0 to 100 where 0 is no effect and 100 is complete control, 13 to 15 days
# [13] = 125 g ai/ha, visual rating on 0 to 100 scale (0 no effect, 100 complete control), approx. 10 days
# [14] = Postemergence, 125 g ai/ha, visual rating on 0 to 100 scale (0 no effect, 100 complete control), approx. 10 days
# [15] = Postemergence, 500 g ai/ha, 0 to 100 scale (0 no effect, 100 complete control)
# [16] = Preemergence, 125 g ai/ha, 0 to 100 scale where 0 is no effect and 100 is complete control
# [17] = Preemergence, 500 g ai/ha, visual rating on 0 to 100 scale (0 no effect, 100 complete control)
SMILES,"Plant response rating, Rice (rice; [1])","Plant response rating, Rice (rice; [2])","Plant response rating, Rice (rice; 250 g ai/ha, scale 0 to 100)","Plant response rating, Rice (rice; 500 g ai/ha, scale 0 to 100)","Plant response rating, Blackgrass (blackgrass; [3])","Plant response rating, Ragweed (ragweed; [4])","Ragweed plant response rating (0 to 100 scale, 0 is no effect, 100 is complete control) (ragweed; Postemergence, 500 g ai/ha)","Plant response rating, Rice (rice; [5])","pest or weed control at 125 g/ha (crabgrass, large; [9]) [%]","pest or weed control at 500 g/ha (crabgrass, large; [10]) [%]","pest or weed control at 500 g/ha (crabgrass, large; [11]) [%]","Crabgrass, Large plant response rating (crabgrass, large)",pest or weed control at 500 g/ha (morningglory; [10]) [%],pest or weed control at 500 g/ha (morningglory; [11]) [%],Morningglory plant response rating (morningglory),pest or weed control at 500 g/ha (velvetleaf; [10]) [%],"Plant response rating, Rice (rice; [12])","Plant response rating, Blackgrass (blackgrass; [13])","Plant response rating, Ragweed (ragweed; [14])","Plant response rating, Ragweed (ragweed; [16])",other results
O=C1NCC(c2ccc(F)cc2)C1C(=O)Nc1ccc(F)c(F)c1F (racemic) [Compound 120],0,0,0,0,50,60,50,–,–,–,–,–,–,–,–,–,–,–,–,–,"Plant response rating, Blackgrass (blackgrass; 125 g ai/ha, 0 to 100 scale, 0 no effect, 100 complete control): 40; Plant response rating, Ragweed (ragweed; Postemergence, 125 g ai/ha, 0 to 100 scale, 0 no effect, 100 complete control): 30; Plant response rating, Ragweed (ragweed; preemergence, 500 g ai/ha, 0 to 100 scale): 80"
O=C1NCC(c2cccc(C(F)F)c2)C1C(=O)Nc1ccccc1F (racemic) [Compound 210],–,0,–,0,–,0,0,0,–,–,–,–,–,–,–,–,–,–,–,–,"Plant response rating, Rice (rice; 1000 g ai/ha, scale 0 to 100): 0; Plant response rating, Blackgrass (blackgrass; [6]): 30; Blackgrass plant response rating (0 to 100 scale, 0 is no effect, 100 is complete control) (blackgrass; 500 g ai/ha): 60; Plant response rating, Ragweed (ragweed; [7]): 0; Plant response rating, Ragweed (ragweed; [8]): 30"
"O=C1NCCC1C(=O)N(c1ccc(F)c(F)c1)c1ccccc1F (centres unmarked) [Compound 5, N-(3,4-difluorophenyl)-N-(2-fluorophenyl)-2-oxo-3-pyrrolidinecarboxamide]",0,0,0,–,–,–,–,–,70,80,90,80,10,0,0,0,–,–,–,–,pest or weed control at 500 g/ha (velvetleaf; [11]): 0%; Velvetleaf plant response rating (velvetleaf): 0
"O=C1NCC(Br)(c2ccccc2)C1C(=O)Nc1ccccc1F (centres unmarked) [Compound 92, 4-bromo-N-(2-fluorophenyl)-2-oxo-4-phenyl-3-pyrrolidinecarboxamide]",10,20,20,–,–,–,–,–,20,70,90,80,0,0,0,0,10,–,–,–,pest or weed control at 125 g/ha (morningglory; [9]): 0%; pest or weed control at 125 g/ha (velvetleaf; [9]): 0%; pest or weed control at 500 g/ha (velvetleaf; [11]): 0%; Velvetleaf plant response rating (velvetleaf): 0
"O=C1NCC(c2ccccc2)C1(Br)C(=O)Nc1ccccc1F (centres unmarked) [Compound 93, 3-bromo-N-(2-fluorophenyl)-2-oxo-4-phenyl-3-pyrrolidinecarboxamide]",20,20,30,–,–,–,–,–,50,80,90,90,0,0,0,0,10,–,–,–,pest or weed control at 125 g/ha (morningglory; [9]): 0%; pest or weed control at 125 g/ha (velvetleaf; [9]): 0%; pest or weed control at 500 g/ha (velvetleaf; [11]): 0%; Velvetleaf plant response rating (velvetleaf): 0
O=C1NCC(c2cccc(OC(F)F)c2)C1C(=O)Nc1cccc(F)c1F (centres unmarked) [Compound 224],0,0,–,–,–,90,60,20,–,–,–,–,–,–,–,–,0,–,–,–,"Plant response rating, Blackgrass (blackgrass; [6]): 60; Blackgrass plant response rating (0 to 100 scale, 0 is no effect, 100 is complete control) (blackgrass; 500 g ai/ha): 70; Plant response rating, Ragweed (ragweed; [7]): 40; Plant response rating, Ragweed (ragweed; [8]): 90"
CN1CC(c2ccc(F)c(F)c2)C(C(=O)Nc2cccc(F)c2F)C1=O (centres unmarked) [Compound 303],0,0,–,–,70,–,–,0,–,–,–,–,–,–,–,–,0,60,20,0,"Plant response rating, Ragweed (ragweed; [15]): 40"
CC(C)c1cccc(C2CNC(=O)C2C(=O)Nc2ccccc2F)c1 (centres unmarked) [Compound 318],0,10,–,–,40,–,–,15,–,–,–,–,–,–,–,–,0,30,0,20,"Plant response rating, Ragweed (ragweed; [15]): 30; Ragweed plant response rating (ragweed; [17]): 40"
O=C1NCC(c2cccc(OC(F)F)c2)C1C(=O)Nc1ccccc1F (centres unmarked) [Compound 323],0,0,–,–,60,–,–,30,–,–,–,–,–,–,–,–,0,40,0,20,"Plant response rating, Ragweed (ragweed; [15]): 20; Ragweed plant response rating (ragweed; [17]): 80"
O=C1NCC(c2ccc(F)c(F)c2)C1C(=O)Nc1ccc(F)c(F)c1F (centres unmarked) [Compound 346],–,0,–,0,50,–,–,0,–,–,–,–,–,–,–,–,–,20,0,0,"Plant response rating, Rice (rice; 1000 g ai/ha, scale 0 to 100): 0; Ragweed plant response rating (ragweed; [17]): 0"
